We go through 30 compounds from patent US20230104936A1, “TRPML MODULATORS” (Casma Therapeutics, Inc., priority 2019, published 2023).

The assay concerns TFEB. Put plainly: TFEB nuclear translocation assay, HeLa wt cells. Type of assay: cell-based. Particulars: 2 hrs compound treatment, Table 1 does not say HeLa wt or TRPML1 KO. An outline of the steps:
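AC50 derived from the ratio of nuclear to perinuclear ring (−5 μm) anti-TFEB immunofluorescence, imaged at ×20 over four fields per well. HeLa wt or TRPML1 KO cells were exposed to compounds for 2 hrs at 37° C, then PFA-fixed and counterstained with Hoechst.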

Take `CN1CC2(CCN(c3ccccc3NS(=O)(=O)c3ccc(S(=O)(=O)N(C)C)cc3)CC2)c2cccnc21` [Compound A-331, N1,N1-dimethyl-N4-(2-{1′-methyl-1′,2′-dihydrospiro[piperidine-4,3′-pyrrolo[2,3-b]pyridin]-1-yl}phenyl)benzene-1,4-disulfonamide]: the AC50 (Homo sapiens, HeLa, 2 h) is at most 2000 nM.

Consider `CC(c1cccc(C#N)c1N1CCC(CN2C[C@@H](C)O[C@@H](C)C2)CC1)S(=O)(=O)c1ccc(S(=O)(=O)N(C)C)cc1` (stereo partly drawn) [Compound A-842, 4-((1-(3-cyano-2-(4-((2,6-dimethylmorpholino)methyl)piperidin-1-yl)phenyl)ethyl)sulfonyl)-N,N-dimethylbenzenesulfonamide], for which the AC50 (Homo sapiens, HeLa, 2 h) is at most 2000 nM.

In turn, `CN(C)S(=O)(=O)c1ccc(S(=O)(=O)Nc2ccnnc2N2CCC(c3ccc(Cl)cc3F)CC2)cc1` [Compound A-139, N4-{3-[4-(4-chloro-2-fluorophenyl)piperidin-1-yl]pyridazin-4-yl}-N1,N1-dimethylbenzene-1,4-disulfonamide] registered an AC50 (Homo sapiens, HeLa, 2 h) of at least 10000 nM.

Where the note is “Homo sapiens, HeLa, 2 h”, `CC1(C)CC2(CCN(c3ccccc3NS(=O)(=O)c3ccc4c(c3)COC4)CC2)CO1` [Compound A-714, N-(2-{3,3-dimethyl-2-oxa-8-azaspiro[4.5]decan-8-yl}phenyl)-1,3-dihydro-2-benzofuran-5-sulfonamide] showed an AC50 of 8010 to 9990 nM.

As for `O=S(=O)(CCO)c1ccc(S(=O)(=O)Nc2ccccc2N2CCC(c3ccc(Cl)cc3F)CC2)cc1` [Compound A-637, N-{2-[4-(4-chloro-2-fluorophenyl)piperidin-1-yl]phenyl}-4-(2-hydroxyethanesulfonyl)benzene-1-sulfonamide], the AC50 (Homo sapiens, HeLa, 2 h) was at least 10000 nM.

With `CS(=O)(=O)c1ccc(S(=O)(=O)Nc2ccccc2N2CCC3(CC2)CN(Cc2cccnc2)c2cc(F)ccc23)cc1` [Compound A-407, N-(2-{6-fluoro-1-[(pyridin-3-yl)methyl]-1,2-dihydrospiro[indole-3,4′-piperidin]-1′-yl}phenyl)-4-methanesulfonylbenzene-1-sulfonamide], the AC50 (Homo sapiens, HeLa, 2 h) is at most 2000 nM.

With `COCC1(C)CCN(c2ccccc2NS(=O)(=O)Cc2cccc(S(=O)(=O)COC)c2)CC1` [Compound A-744, 1-(3-methoxymethanesulfonylphenyl)-N-{2-[4-(methoxymethyl)-4-methylpiperidin-1-yl]phenyl}methanesulfonamide], under “Homo sapiens, HeLa, 2 h”, the AC50 is at least 10000 nM.

Where the note is “Homo sapiens, HeLa, 2 h”, `COc1ccc(S(=O)(=O)Nc2ncccc2N2CCN(c3ncc(Cl)cc3F)CC2)cc1` [Compound A-135, N-{3-[4-(5-chloro-3-fluoropyridin-2-yl)piperazin-1-yl]pyridin-2-yl}-4-methoxybenzene-1-sulfonamide] had an AC50 of at least 10000 nM.

Where the note is “Homo sapiens, HeLa, 2 h”, `CC1(C)CC2(CCN(c3ccccc3NS(=O)(=O)Cc3ccc(C(F)F)cc3)CC2)CO1` [Compound A-716, 1-[4-(difluoromethyl)phenyl]-N-(2-{3,3-dimethyl-2-oxa-8-azaspiro[4.5]decan-8-yl}phenyl)methanesulfonamide] gave an AC50 of 2010 to 8000 nM.

Take `CC(c1cccc(F)c1N1CCC(CN2CCC(F)(F)CC2)CC1)S(=O)(=O)c1ccc(S(=O)(=O)N(C)C)cc1` (stereo not drawn) [Compound A-803, 4-((1-(2-(4-((4,4-difluoropiperidin-1-yl)methyl)piperidin-1-yl)-3-fluorophenyl)ethyl)sulfonyl)-N,N-dimethylbenzenesulfonamide]: the AC50 was at most 2000 nM.

The compound `O=C(Nc1cccc(Cl)c1N1CCOCC1)c1ccc2c(c1)CCC2` [Compound A-366, N-[3-chloro-2-(morpholin-4-yl)phenyl]-2,3-dihydro-1H-indene-5-carboxamide] had a concentration at half-maximal activity (AC50) (Homo sapiens, HeLa, 2 h) of at least 10000 nM.

For the compound `CC(C1CCN(c2c(F)cccc2NS(=O)(=O)c2ccc(S(=N)(=O)N(C)C)cc2)CC1)N1C[C@@H](C)O[C@@H](C)C1` (stereo partly drawn) [Compound A-872A, N-(2-(4-(1-((2S,6R)-2,6-dimethylmorpholino)ethyl)piperidin-1-yl)-3-fluorophenyl)-4-(N,N-dimethylsulfamidimidoyl)benzenesulfonamide], the AC50 (Homo sapiens, HeLa, 2 h) is at most 2000 nM.

For the compound `CN1CCC(S(=O)(=O)Nc2ccccc2N2CCN(c3ccc(Cl)cc3F)CC2)CC1` [Compound A-16, N-{2-[4-(4-chloro-2-fluorophenyl)piperazin-1-yl]phenyl}-1-methylpiperidine-4-sulfonamide], the AC50 (Homo sapiens, HeLa, 2 h) was in the range of 2010 to 8000 nM.

For the setting “Homo sapiens, HeLa, 2 h”, `O=S(=O)(Nc1cccc(Cl)c1N1CCC(c2ccc(Cl)cc2F)CC1)c1ccc2c(c1)CCC2` [Compound A-341, N-{3-chloro-2-[4-(4-chloro-2-fluorophenyl)piperidin-1-yl]phenyl}-2,3-dihydro-1H-indene-5-sulfonamide] registered a concentration at half-maximal activity (AC50) of at most 2000 nM.

Compound `CN=S(=O)(c1ccc(S(=O)(=O)Nc2cccc(F)c2N2CCC(CN3C[C@@H](C)O[C@@H](C)C3)CC2)cc1)N(C)C` (stereo partly drawn) [Compound A-956, 4-{[2-(4-{[(2R,6S)-2,6-dimethylmorpholin-4-yl]methyl}piperidin-1-yl)-3-fluorophenyl]sulfamoyl}-N,N,N-trimethylbenzene-1-sulfonoimidamide] had an AC50 (Homo sapiens, HeLa, 2 h) of at most 2000 nM.

For the setting “Homo sapiens, HeLa, 2 h”, `CN(C)S(=N)(=O)c1ccc(S(=O)(=O)Nc2cccc(F)c2N2CCC(C3(N4CCOCC4)CC3)CC2)cc1` (stereo not drawn) [Compound A-858, 4-[(3-fluoro-2-{4-[1-(morpholin-4-yl)cyclopropyl]piperidin-1-yl}phenyl)sulfamoyl]-N,N-dimethylbenzene-1-sulfonoimidamide] displayed an AC50 of at most 2000 nM.

`CCC(C1CCN(c2c(F)cccc2NS(=O)(=O)c2ccc(S(=N)(=O)N(C)C)cc2)CC1)N1CCOCC1` (stereo not drawn) [Compound A-857, 4-[(3-fluoro-2-{4-[1-(morpholin-4-yl)propyl]piperidin-1-yl}phenyl)sulfamoyl]-N,N-dimethylbenzene-1-sulfonoimidamide] displayed a half-maximal activity concentration (AC50) (Homo sapiens, HeLa, 2 h) of at most 2000 nM.

The compound `O=S(=O)(Nc1cccc(Cl)c1N1CCOCC1)c1cccc(C2CC2)c1` [Compound A-390, N-[3-chloro-2-(morpholin-4-yl)phenyl]-3-cyclopropylbenzene-1-sulfonamide] displayed an AC50 (Homo sapiens, HeLa, 2 h) of at most 2000 nM.

On to `CN(C)S(=O)(=O)c1ccc(S(=O)(=O)Nc2ccccc2N2CCC(F)(COC(F)(F)F)CC2)cc1` [Compound A-798, N4-(2-{4-fluoro-4-[(trifluoromethoxy)methyl]piperidin-1-yl}phenyl)-N1,N1-dimethylbenzene-1,4-disulfonamide], for which the AC50 (Homo sapiens, HeLa, 2 h) was at most 2000 nM.

Compound `CS(=O)(=O)c1ccc(S(=O)(=O)Nc2ccccc2N2CCC(O)(c3ccc(F)cc3)CC2)cc1` [Compound A-203, N-{2-[4-(4-fluorophenyl)-4-hydroxypiperidin-1-yl]phenyl}-4-methanesulfonylbenzene-1-sulfonamide] returned an AC50 (Homo sapiens, HeLa, 2 h) of 2010 to 8000 nM.

For `CC1(C)CC2(CCN(c3ccccc3NS(=O)(=O)c3ccc(S(C)(=O)=O)cc3)CC2)CO1` [Compound A-693, N-(2-{3,3-dimethyl-2-oxa-8-azaspiro[4.5]decan-8-yl}phenyl)-4-methanesulfonylbenzene-1-sulfonamide], the AC50 (Homo sapiens, HeLa, 2 h) fell in the range of 2010 to 8000 nM.

`CN(C)S(=O)(=O)c1ccc(S(=O)(=O)Nc2ccccc2N2CCN(C(=O)[C@@]34CCC[C@@H]3C4)CC2)cc1` (racemic) [Compound A-477, rac-N4-(2-{4-[(1R,5R)-bicyclo[3.1.0]hexane-1-carbonyl]piperazin-1-yl}phenyl)-N1,N1-dimethylbenzene-1,4-disulfonamide] had an AC50 (Homo sapiens, HeLa, 2 h) of 2010 to 8000 nM.

On to `COCC1(C)CCN(c2ccccc2NS(=O)(=O)c2ccc(C(C)(C)C(=O)OC)cc2)CC1` [Compound A-705, methyl 2-[4-({2-[4-(methoxymethyl)-4-methylpiperidin-1-yl]phenyl}sulfamoyl)phenyl]-2-methylpropanoate], for which the AC50 (Homo sapiens, HeLa, 2 h) is 8010 to 9990 nM.

On to `O=S(=O)(Cc1ccc(F)c(Cl)c1)Nc1cccc(Cl)c1N1CCOCC1` [Compound A-368, N-[3-chloro-2-(morpholin-4-yl)phenyl]-1-(3-chloro-4-fluorophenyl)methanesulfonamide], for which the AC50 (Homo sapiens, HeLa, 2 h) lay in the range of 2010 to 8000 nM.

As for `CC(c1cccc(F)c1N1CCC(CN2C3CCC2COC3)CC1)S(=O)(=O)c1ccc(S(C)(=O)=O)cc1` (single isomer, unassigned) [Compound A-913, 8-((1-(2-fluoro-6-(1-((4-(methylsulfonyl)phenyl)sulfonyl)ethyl)phenyl)piperidin-4-yl)methyl)-3-oxa-8-azabicyclo[3.2.1]octane], the AC50 is at most 2000 nM.

In the case of `CN(C)S(=O)(=O)c1ccc(S(=O)(=O)Nc2ccccc2N2CCC(C3(O)CC3)CC2)cc1` [Compound A-433, N4-{2-[4-(1-hydroxycyclopropyl)piperidin-1-yl]phenyl}-N1,N1-dimethylbenzene-1,4-disulfonamide], the AC50 (Homo sapiens, HeLa, 2 h) was in the range of 2010 to 8000 nM.

As for `CC(C)c1ccc(S(=O)(=O)Nc2ccccc2N2CCN(C(=O)C(C)(C)C)CC2)cc1` [Compound A-512, N-{2-[4-(2,2-dimethylpropanoyl)piperazin-1-yl]phenyl}-4-(propan-2-yl)benzene-1-sulfonamide], the half-maximal activity concentration (AC50) (Homo sapiens, HeLa, 2 h) is 2010 to 8000 nM.

Under “Homo sapiens, HeLa, 2 h”, `Cc1nc2ccc(S(=O)(=O)Nc3ccccc3N3CCN(C(=O)C(C)(C)C)CC3)cc2s1` [Compound A-600, N-{2-[4-(2,2-dimethylpropanoyl)piperazin-1-yl]phenyl}-2-methyl-1,3-benzothiazole-6-sulfonamide] gave an AC50 of at least 10000 nM.

Regarding `CN(C)S(=O)(=O)c1ccc(S(=O)(=O)Nc2ccccc2N2CCN([C@@H]3C[C@@H]4CC[C@H]3C4)CC2)cc1` (racemic) [Compound A-421, rac-N4-(2-{4-[(1R,2S,4S)-bicyclo[2.2.1]heptan-2-yl]piperazin-1-yl}phenyl)-N1,N1-dimethylbenzene-1,4-disulfonamide], the AC50 (Homo sapiens, HeLa, 2 h) was at most 2000 nM.

With `CN(C)CC1(c2ccc(F)cc2)CCN(c2ccccc2NS(=O)(=O)c2ccc(S(=O)(=O)N(C)C)cc2)CC1` [Compound A-231, N4-(2-{4-[(dimethylamino)methyl]-4-(4-fluorophenyl)piperidin-1-yl}phenyl)-N1,N1-dimethylbenzene-1,4-disulfonamide], the half-maximal activity concentration (AC50) (Homo sapiens, HeLa, 2 h) is at most 2000 nM.

The AC50 is the concentration at which the activity in the assay is half-maximal. Low readings indicate greater potency, high ones weaker potency.
